From patent publication US20150376196A1, “4-SUBSTITUTED PYRROLO- AND PYRAZOLO-DIAZEPINES” (BAYER PHARMA AKTIENGESELLSCHAFT, priority 2013, published 2015) come the findings set out here.

Read-outs that look alike come from different tables or passages of the source.

One test deals with T1, BRD4 (BD1) (Homo sapiens, UniProt O60885).
T1 construct: amino acids 67-152, longer constructs also being possible, preferably amino acids 44-168; made in house; host or cells: E. coli
As to the kind of experiment: Binding assay BRD4/acetylated peptide H4 (TR-FRET protein-protein interaction assay). The text has this: To assess the BRD4 binding strength of the substances described in this application, the ability thereof to inhibit the interaction between BRD4 (BD1) and acetylated histone H4 in a dose-dependent manner was quantified.
For this purpose, a time-resolved fluorescence resonance energy transfer (TR-FRET) assay was used, which measures the binding between N-terminally His6-tagged BRD4 (BD1) (amino acids 67-152, longer constructs also being possible, preferably amino acids 44-168) and a synthetic acetylated histone H4 (Ac-H4) peptide with sequence GRGK(Ac)GGK(Ac)GLGK(Ac)GGAK(Ac)RHGSGSK-biotin. The recombinant BRD4 protein produced in-house according to Filippakopoulos et al., Nature, 2010, 468:1119-1123 was expressed in E. coli and purified by means of (Ni-NTA) affinity and (Sephadex G-75) size exclusion chromatography. The Ac-H4 peptide can be purchased, for example, from Biosyntan (Berlin, Germany).
In the assay, typically 11 different concentrations of each substance (0.1 nM, 0.33 nM, 1.1 nM, 3.8 nM, 13 nM, 44 nM, 0.15 μM, 0.51 μM, 1.7 μM, 5.9 μM and 20 μM) were analysed as duplicates on the same microtitre plate. For this purpose, 100-fold concentrated solutions in DMSO were prepared by serial dilutions (1:3.4) of a 2 mM stock solution into a clear, 384-well microtitre plate (Greiner Bio-One, Frickenhausen, Germany). From this, 50 nl were transferred into a black test plate (Greiner Bio-One, Frickenhausen, Germany). The test was started by the addition of 2 μl of a 2.5-fold concentrated BRD4 solution (final concentration typically 10 nM in the 5 μl of reaction volume) in aqueous assay buffer [50 mM HEPES pH 7.5, 50 mM sodium chloride (NaCl), 0.25 mM CHAPS and 0.05% serum albumin (BSA)] to the substances in the test plate. This was followed by a 10-minute incubation step at 22° C. for the pre-equilibration of putative complexes between BRD4 and the substances.
The mixture was then incubated in the dark at 22° C. for one hour and then at 4° C. for at least 3 hours and for no longer than overnight. The formation of BRD4/Ac-H4 complexes was determined by the measurement of the resonance energy transfer from the streptavidin-Eu cryptate to the anti-6His-XL665 antibody present in the reaction. For this purpose, the fluorescence emission was measured at 620 nm and 665 nm after excitation at 330-350 nm in a TR-FRET measuring instrument, for example a Rubystar or Pherastar (both from BMG Lab Technologies, Offenburg, Germany) or a Viewlux (Perkin-Elmer). The ratio of the emissions at 665 nm and at 622 nm was taken as an indicator of the amount of BRD4/Ac-H4 complexes formed.
The data (ratios) obtained were normalized, with 0% inhibition corresponding to the mean from the measurements for a set of controls (typically 32 data points) in which all the reagents were present. In these, in place of test substances, 50 nl of DMSO (100%) were used Inhibition of 100% corresponded to the mean from the measurements for a set of controls (typically 32 data points) in which all the reagents except BRD4 were present. The IC50 was determined by regression analysis based on a 4-parameter equation (minimum, maximum, IC50, Hill; Y=max+(min−max)/(1+(X/IC50)^Hill)).
On the technique in general: TR-FRET usually uses a lanthanide donor and a delayed reading to cut background.

For another test, the system named is MOLM-13 cells. As to the kind of experiment: Cell proliferation assay (alamarBlue), MOLM-13. Format: cell-based. The conditions noted are these: Homo sapiens, Leukaemia, 96 hours, inhibition of cell proliferation. As to the method: (§1) In accordance with the invention, the ability of the substances to inhibit cell proliferation was determined Cell viability was determined by means of the alamarBlue® reagent (Invitrogen) in a Victor X3 Multilabel Reader (Perkin Elmer). The excitation wavelength was 530 nm and the emission wavelength […].
The MOLM-13 cells (DSMZ, ACC 554) were sown at a concentration of 4000 cells/well in 100 μl of growth medium (RPMI1640, 10% FCS) on 96-well microtitre plates.
(§2) The MDA-MB-231 cells (DSMZ, ACC 732) were sown at a concentration of 4000 cells/well in 100 μl of growth medium (DMEM/Ham's F12 medium, 10% FCS) on 96-well microtitre plates. After overnight incubation at 37° C., the fluorescence values (CI values) were determined. Then the plates were treated with various substance dilutions (1E-5 M, 3E-6 M, 1E-6 M, 3E-7 M, 1E-7 M, 3E-8 M, 1E-8 M) and incubated at 37° C. for 72 (MV-4-11, LOX-IMVI cells), 96 (MOLM-13, B16F10, […] cells), 120 (MOLP-8, KMS-12-PE cells) or 168 (LAPC-4 cells) hours. Subsequently, the fluorescence values were determined (CO values). For the data analysis, the CI values were subtracted from the CO values and the results were compared between cells which had been treated with various dilutions of the substance or only with buffer solution. The ICso values (substance concentration needed for 50% inhibition of cell proliferation) were calculated therefrom.
(§3) The substances were tested in the cell lines in Table 1, which represent the indications specified by way of example: […]
(Resazurin is reduced to fluorescent resorufin, in cell work by metabolically active cells.)

The next test relates to LAPC-4 cells. As to the kind of experiment: Cell proliferation assay (alamarBlue), LAPC-4. The settings on record: Homo sapiens, LAPC4, Prostate, 1 nM methyltrienolone, 168 hours, inhibition of cell proliferation. In kind it is cell-based. As for the experimental part: as §1
The LAPC-4 cells (ATCC, PTA-1441TM) were sown at a concentration of 4000 cells/well in 100 μl of growth medium (RPMI1640, 2 mM L-glutamine, 10% cFCS) on 96-well microtitre plates. One day later, the LAPC-4 cells were treated with 1 nM methyltrienolone and various substance dilutions.
as §2, §3

Where [1] appears, read: BRD4 (BD1) / acetylated histone H4 peptide, TR-FRET, read-out: IC50 (BRD4).

Regarding `CCNC(=O)CC1N=C(c2ccc(Cl)cc2)c2nn(C)cc2-n2c(C)nnc21` (stereo not drawn) [Example 18, 2-[6-(4-Chlorophenol)-1,8-dimethyl-4,8-dihydropyrazolo[3,4-f][1,2,4]triazolo[4,3-a][1,4]diazepin-4-yl]-N-ethylacetamide], the IC50 (in general, the point on the concentration scale where inhibition reaches its midpoint) on BRD4 (BD1) (setting [1]) came to 0.78 µM.

In the case of `Cc1c2c(cn1C)-n1c(C)nnc1C(Cc1nc(C3CC3)no1)N=C2c1ccc(Cl)cc1` (stereo not drawn) [Example 24, 6-(4-Chlorophenyl)-4-[(3-cyclopropyl-1,2,4-oxadiazol-5-yl)methyl]-1,7,8-trimethyl-4,8-dihydropyrrolo[3,4-f][1,2,4]triazolo[4,3-a][1,4]diazepine], the IC50 on BRD4 (BD1) (setting [1]) came out at 0.05 µM; in the test with MOLM-13 cells it was 0.08 µM.

For the compound `Cc1noc(CC2N=C(c3ccc(Cl)cc3)c3c(cn(C)c3C)-n3c(C)nnc32)n1` (stereo not drawn) [Example 25, 6-(4-Chlorophenyl)-1,7,8-trimethyl-4-[(3-methyl-1,2,4-oxadiazol-5-yl)methyl]-4,8-dihydropyrrolo[3,4-f][1,2,4]triazolo[4,3-a][1,4]diazepine], the figures for the IC50 on BRD4 (BD1) (setting [1]), with LAPC-4 cells and with MOLM-13 cells were 0.09 µM, 0.08 µM and 0.13 µM, respectively.

As for `Cc1c2c(cn1C)-n1c(C)nnc1C(Cc1nc(C(C)C)no1)N=C2c1ccc(Cl)cc1` (stereo not drawn) [Example 29, 6-(4-Chlorophenyl)-1,7,8-trimethyl-4-{[3-(propan-2-yl)-1,2,4-oxadiazol-5-yl]methyl}-4,8-dihydropyrrolo[3,4-f][1,2,4]triazolo[4,3-a][1,4]diazepine], the results for the IC50 on BRD4 (BD1) (setting [1]) and in the test with MOLM-13 cells were 0.03 µM and 0.08 µM, respectively.

Consider `Cc1nnc2n1-c1cn(C)nc1C(c1ccc(Cl)cc1)=NC2CC(=O)N1CCOCC1` (stereo not drawn) [Example 16, 2-[6-(4-Chlorophenyl)-1,8-dimethyl-4,8-dihydropyrazolo[3,4-f][1,2,4]triazolo[4,3-a][1,4]diazepin-4-yl]-1-(morpholin-4-yl)ethanone], for which the IC50 at BRD4 (BD1) (setting [1]) amounted to 0.7 µM; in the test on MOLM-13 cells, 4.55 µM.

Take `CCc1noc(CC2N=C(c3ccc(Cl)cc3)c3c(cn(C)c3C)-n3c(C)nnc32)n1` (stereo not drawn) [Example 27, 6-(4-Chlorophenyl)-1,7,8-trimethyl-4-[(3-ethyl-1,2,4-oxadiazol-5-yl)methyl]-4,8-dihydropyrrolo[3,4-f][1,2,4]triazolo[4,3-a][1,4]diazepine]: the IC50 stood at 0.03 µM at BRD4 (BD1) (setting [1]) and 0.1 µM with MOLM-13 cells.

On to `Cc1c2c(cn1C)-n1c(C)nnc1[C@H](CC(=O)N1CCOCC1)N=C2c1ccccc1` [Example 19, 1-(Morpholin-4-yl)-2-[(4S)-1,7,8-trimethyl-6-phenyl-4,8-dihydropyrrolo[3,4f][1,2,4]triazolo[4,3-a][1,4]diazepin-4-yl]ethanone], for which the IC50 at BRD4 (BD1) (setting [1]) was determined as 0.24 µM; in the test with LAPC-4 cells, 0.7 µM; in the test on MOLM-13 cells it was 1.24 µM.

For the compound `Cc1c2c(cn1C)-n1c(C)nnc1[C@H](CC(=O)N1CCN3C(=O)CCC3C1)N=C2c1ccc(Cl)cc1` (single isomer, unassigned; (-)) [Example 23], the IC50 was found to be 0.05 µM on BRD4 (BD1) (setting [1]), 0.47 µM in the test on LAPC-4 cells and 0.88 µM in the test on MOLM-13 cells.

`Cc1c2c(cn1C)-n1c(C)nnc1C(Cc1nc(C(C)(C)C)no1)N=C2c1ccc(Cl)cc1` (stereo not drawn) [Example 31, 4-[(3-tert-Butyl-1,2,4-oxadiazol-5-yl)methyl]-6-(4-chlorophenyl)-1,7,8-trimethyl-4,8-dihydropyrrolo[3,4-f][1,2,4]triazolo[4,3-a][1,4]diazepine]: the IC50 on BRD4 (BD1) (setting [1]) was determined as 0.49 µM; in the test with LAPC-4 cells, 0.35 µM; in the test with MOLM-13 cells, 0.49 µM.

For the compound `Cc1nnc2n1-c1cn(C)nc1C(c1ccc(Cl)cc1)=N[C@H]2CC(=O)N1CCS(=O)(=O)CC1` [Example 15, 2-[(4S)-6-(4-Chlorophenyl)-1,8-dimethyl-4,8-dihydropyrazolo[3,4f][1,2,4]triazolo[4,3-a][1,4]diazepin-4-yl]-1-(1,1-dioxidothiomorpholin-4-yl)ethanone], the IC50 was found to be 0.45 µM on BRD4 (BD1) (setting [1]) and 2.98 µM with MOLM-13 cells.

For the compound `Cc1c2c(cn1C)-n1c(C)nnc1[C@H](CC(=O)N1CCN(C(=O)OC(C)(C)C)CC1)N=C2c1ccc(Cl)cc1` [Example 22, (−)-4-{[(4S)-6-(4-Chlorophenyl)-1,7,8-trimethyl-4,8-dihydropyrrolo[3,4-f][1,2,4]triazolo[4,3-a][1,4]diazepin-4-yl]acetyl}piperazine-1-carboxylic acid tert-butyl ester], the IC50 amounted to 0.02 µM on BRD4 (BD1) (setting [1]), 0.34 µM in the test on LAPC-4 cells and 0.72 µM with MOLM-13 cells.

Consider `CCNC(=O)C[C@@H]1N=C(c2ccc(Cl)cc2)c2c(cn(C)c2C)-n2c(C)nnc21` [Example 10, (−)-2-[(4S)-6-(4-Chlorophenyl)-1,7,8-trimethyl-4,8-dihydropyrrolo[3,4f][1,2,4]triazolo[4,3-a][1,4]diazepin-4-yl]-N-ethylacetamide], for which the IC50 on BRD4 (BD1) (setting [1]) turned out to be 0.17 µM; in the test on MOLM-13 cells it was 0.45 µM.

For `Cc1nnc2n1-c1cn(C)nc1C(c1ccc(Cl)cc1)=NC2CC(=O)N1CC(F)C1` (stereo not drawn) [Example 17, 2-[6-(4-Chlorophenyl)-1,8-dimethyl-4,8-dihydropyrazolo[3,4-f][1,2,4]triazolo[4,3-a][1,4]diazepin-4-yl]-1-(3-fluoroazetidin-1-yl)ethanone], the half-maximal inhibitory concentration (IC50) at BRD4 (BD1) (setting [1]) came to 1.14 µM.

For the compound `Cc1c2c(cn1C)-n1c(C)nnc1[C@H](CC(=O)N1CC(Oc3ccccc3)C1)N=C2c1ccc(Cl)cc1` [Example 20, (−)-2-[(4S)-6-(4-Chlorophenyl)-1,7,8-trimethyl-4,8-dihydropyrrolo[3,4f][1,2,4]triazolo[4,3-a][1,4]diazepin-4-yl]-1-(3-phenoxyazetidin-1-yl)ethanone], the values for the half-inhibitory concentration (IC50) at BRD4 (BD1) (setting [1]), in the test on LAPC-4 cells and with MOLM-13 cells were 0.06 µM, 0.41 µM and 0.92 µM, respectively.

As to `Cc1c2c(cn1C)-n1c(C)nnc1[C@H](CC(=O)OC(C)(C)C)N=C2c1ccccc1` [Example 4, (−)-2-(4S)-(1,7,8-Trimethyl-6-phenyl-4,8-dihydropyrrolo[3,4f][1,2,4]triazolo[4,3-a][1,4]diazepin-4-yl)acetic acid tert-butyl ester], the IC50 on BRD4 (BD1) came to 0.31 µM.
